Laboratory results as given in patent US9775844B2, “Heterocyclic compounds and uses thereof” (Infinity Pharmaceuticals, Inc., priority 2014, dated 2017).

Tested on: GL-261
Experiment: GL-261 glioma model with or without temozolomide
Type: in vivo, mouse
Method: TMZ was dosed IP 1×/day for 7 days.
Animals: C57 Albino mice (male) from Jackson Labs, n=80. Parameters Evaluated:
In life: Mice were dosed QD with Compound BB. Temozolomide was dosed QD IP, for 7 days. Tumor measurements and bodyweights were taken 2×/week, but caliper and xenogen measurements.
End point analysis: Tumors were cut in half. One half was cut in half again with 1/2 fixed in 10% NBF the other was frozen in OCT for frozen sections. The remaining half was processed to single cell suspention and evaluated by FACS.
PD satilite group—8 mice from the TMZ treated mice and 8 mice from the vehicle treated mice were sacrificed on day 7 post treatment. Tumors were processed to single cell suspention and evaluated by FACS.

## C[C@H](NC(=O)c1c(N)nn2cccnc12)c1cc2cccc(C#Cc3cnn(C)c3)c2c(=O)n1-c1ccccc1 [Compound BB]
15 mg/kg QD PO following TMZ @ 1 mg/kg
  tumor volume, GL-261, compared to vehicle: significant reduction in tumor volume
Treated from the start of treatment, 15 mg/kg QD PO
  tumor volume, GL-261, compared to vehicle: significant reduction in tumor volume
